Measured values as given in US20230046078A1, “METHODS OF USING SUBSTITUTED FLAVONES FOR TREATING BONE DISORDERS” (EMORY UNIVERSITY, priority 2021, published 2023).
Entries after “also recorded” stand apart in the source; their conditions may differ.

How the values were obtained:
[1] = tested on: MC3T3-E1 cells; type: cell-based, Murine; conditions: OIM, 4 days
[2] = tested on: MC3T3-E1 cells; conditions: OIM
Experimental: MC3T3-E1 cells were seeded onto plates in complete medium and cultured for 24 days, until the cells reached 70% confluence.
MC3T3-E1 and RAW 264.7 cells were washed with ice-cold PBS and lysed in (50 mM Tris, pH 7.4, 40 mM NaCl, 1 mM EDTA, 0.5% Triton X-100, 1.5 mM Na3VO4, 50 mM NaF, 10 mM sodium pyrophosphate, 10 mM sodium β-glycerophosphate, supplemented with protease inhibitor cocktail) at 4° C. for 0.5 h, and centrifuged for 25 min at 15,000 rpm. The supernatant was boiled in SDS loading buffer. After SDS-PAGE, the samples were transferred to a nitrocellulose membrane. The membrane was blocked with TBS containing 5% nonfat milk and 0.1% Tween 20 (TBST) at room temperature for 2 hours, followed by the incubation with primary antibody at 4° C. overnight, and with the secondary antibody at room temperature for 2 hours. After washing with TBST, the membrane was developed using the enhanced chemiluminescent (ECL) detection system.
To further interrogate the molecular mechanism of 7,8-DHF in promoting OPG expression, a time course study in MC3T3-E1 cells in the presence of OIM was conducted.

[3] = tested on: BDNF/TrkB signaling; experiment: Immunoblotting of p-TrkB signaling in bone marrow after oral R13; type: in vivo, mice; conditions: R13-derived 7,8-DHF after oral administration of R13
[4] = tested on: AEP; experiment: AEP activity assay on MC3T3-E1 cell lysates; type: cell-based, Murine; conditions: MC3T3 cells in OIM; substrate Z-Ala-Ala-Asn-AMC
Experimental: Cell lysates (10 μg) were incubated in 200 μl assay buffer (20 mM citric acid, 60 mM Na2HPO4, 1 mM EDTA, 0.1% CHAPS, and 1 mM DTT, pH 6.0) containing 20 μM δ-secretase substrate Z-Ala-Ala-Asn-AMC (Bachem, Bubendorf, Switzerland). AMC released by substrate cleavage was quantified by measuring at 460 nm in a fluorescence plate reader at 37° C. for 2 h in kinetic mode.

[5] = tested on: MC3T3-E1 cells; experiment: ELISA of OPG and RANK-L secreted into the medium of MC3T3 cells; type: cell-based, Murine; conditions: OIM; vs OIM alone
From the text: FIG. 9, Panel A contains representative images of ALP staining in […] cells treated with BDNF or 7,8-DHF combined with or without K252a for 14 days (n=3 independent experiments) (Scale bar, 5 mm (upper panel), 200 μm (lower panel)). […] FIG. 9, Panel C contains Western blots for MC3T3 cells cultured in complete medium or osteogenic induction medium (OIM) with BDNF or 7,8 DHF combined with or without K252a for 4 days. […] FIG. 9, Panel D contains graphs of the relative protein levels of C/EBPP, p-C/EBPβ, AEP, RANK-L, OPG, Osterix, p-TrkB/TrkB and p-Akt/AKT in MC3T3 cells cultured in the complete medium or OIM with BDNF or 7,8-DHF combined with or without K252a for four days. Data are shown as mean±SEM of three independent experiments, one-way ANOVA. Data are shown in each graph from left to right as 1) Control, 2) OIM+DMSO, 3) OIM+BDNF, 4) OIM+7,8-DHF, 5) OIM+BDNF+K252a, and 6) OIM+7,8-DHF+K252a. FIG. 9, Panel E contains graphs of an AEP enzymatic activity assay. BDNF and 7,8-DHF inhibit AEP activities, and K252a abolish BDNF and 7,8-DHF's effects. Data are shown as mean±SEM of 3 independent experiments, one-way ANOVA. Data are shown in each graph from left to right as 1) Control, 2) OIM+DMSO, 3) OIM+BDNF, 4) OIM+7,8-DHF, 5) OIM+BDNF+K252a, and 6) OIM+7,8-DHF+K252a. FIG. 9, Panel F contains graphs of qPCR results showing that OPG mRNA expression increases in MC3T3 cells after 7,8-DHF treatment for four days. Data are shown as mean±SEM of three independent experiments, one-way ANOVA. Data are shown in each graph from left to right as 1) Control, 2) OIM+DMSO, 3) OIM+BDNF, 4) OIM+7,8-DHF, 5) OIM+BDNF+K252a, and 6) OIM+7,8-DHF+K252a. FIG. 9, Panel G contains graphs showing that 7,8-DHF increases OPG and decreases the RANK-L/OPG ratio. Levels of OPG and RANK-L proteins secreted into the medium were measured by ELISA. Data are shown as mean±SEM of 3 independent experiments, one-way ANOVA. Data are shown in each graph from left to right as 1) Control, 2) OIM+DMSO, 3) OIM+BDNF, 4) OIM+7,8-DHF, 5) OIM+BDNF+K252a, and 6) OIM+7,8-DHF+K252a.

[6] = tested on: MC3T3-E1 cells; type: cell-based, Murine; conditions: OIM, four days
Experimental: Total RNA was isolated by TRIzol (Life Technologies, Carlsbad, Calif.). Reverse transcription was performed with SuperScript III reverse transcriptase (Life Technologies). Gene-specific primers and probes were designed and bought from Taqman (Life Technologies). All real-time PCR reactions were performed using the ABI 7500-Fast Real-Time PCR System and the Taqman Universal Master Mix Kit (Life Technologies). The relative quantification of gene expression was calculated using the ΔΔCt method. Predesigned real-time PCR primers from Applied Biosystems (Waltham, Mass.) were used for the analysis of Opg (Tnfrsf11b; Mm0043545_m1), RANK-L (Tnfsf11; Mm00441908_m1), AEP (Lgmn; Mm01325350_m1), GAPDH (Gapdh; Mm99999915_g1).

[7] = tested on: TrkB; conditions: primary neurons; read-out: EC50 for activating TrkB; cited from earlier work

Question: For O=c1cc(-c2ccccc2)oc2c(O)c(O)ccc12 [7,8-DHF], which AEP expression [1] is on record?
Answer: Its AEP expression is “diminished”.

Question: What about the “RANK-L protein (Western blot)” value [1] of the same compound?
Answer: The value was “augmentation”.

Question: What about the “CREB or c-Jun levels” value ([2]; siRNA experiment) of the same compound?
Answer: Its value is “without interfering”.

Question: What about the p-Akt ([2]; time course 0-60 min) of the same compound?
Answer: The p-Akt was “activated”.

Question: What about the p-C/EBPβ signal ([2]; time course 0-60 min) of the same compound?
Answer: Its p-C/EBPβ signal is “time-dependently increased”.

Question: What about the p-CREB signal ([2]; time course 0-60 min) of the same compound?
Answer: Its p-CREB signal is “time-dependently increased”.

Question: And the p-MAPK ([2]; time course 0-60 min)?
Answer: The p-MAPK was “activated”.

Question: What about the p-TrkB ([2]; time course 0-60 min) of the same compound?
Answer: The p-TrkB was “activated”.

Question: And the p-c-Jun signal ([2]; time course 0-60 min)?
Answer: The p-c-Jun signal was “time-dependently increased”.

Question: What about the “BDNF/TrkB signaling in the bone marrow (p-TrkB, AKT, MAPK phosphorylation)” value [3] of the same compound?
Answer: The value was “activates”.

Question: What about the AEP protease activities [4] of the same compound?
Answer: The AEP protease activities was “greatly blocked; also recorded: inhibit”.

Question: What about the “OPG protein secreted into the medium” value [5] of the same compound?
Answer: Its value is “further augmented; also recorded: increases”.

Question: What about the “RANK-L protein secreted into the medium” value [5] of the same compound?
Answer: Its value is “further augmented”.

Question: And the “RANK-L/OPG ratio (ELISA)” value [5]?
Answer: The value was “OIM alone were significantly higher than BDNF and 7,8-DHF; also recorded: decreases”.

Question: And the “RANK-L mRNA” value [6]?
Answer: Its value is “elevated”.

Question: What about the EC50 [7] of the same compound?
Answer: Its EC50 is ~50 nM.
